# Patent publication US20100003217A1, “Compounds and Pharmaceutical Compositions for the Treatment of Viral Infections” (priority 2008, published 2010)
# Assays:
# [1] = tested on: CYP3A4; experiment: Effect of CYP3A4 inhibitors (ketoconazole, ritonavir) on metabolic stability in monkey liver microsomes; assay type: in vitro ADME; settings: monkey microsomes 0.5 mg/mL, 30 min, 10 μM, NADPH
# Description: (§1) Incubations were conducted in a final volume of 0.1 mL per incubation time point. […] Final solvent (DMSO or methanol) concentration was maintained at 0.2%. Reactions were initiated by the addition of an NADPH regenerating system (1.3 mM NADP^+, 3.3 mM glucose-6-phosphate, 0.4 U/ml glucose-6-phosphate dehydrogenase, and 3.3 mM MgCl2, final concentrations). Incubations with no inhibitor served as control. Reactions were terminated at 30 min (monkey) or 60 min (rat and human) by the addition of 0.2 mL of stop solution (acetonitrile). The samples were vortex-mixed for 30 sec and then centrifuged at 10,000×g for 10 min. The supernatant was dried using a Labconco CentriVap concentrator and the dry residue reconstituted in water, transferred to an HPLC glass vial and analyzed by HPLC-UV method 1 (described above).
# (§2) Because Compound 1 is rapidly metabolized in monkey liver microsomes, incubation conditions were adjusted by reducing protein content to 0.5 mg/mL and incubation time to 30 min. Incubation conditions for rat and human were unchanged; protein was 1 mg/mL and incubation time was 60 min.
# [2] = biological target: CYP2D6 (Homo sapiens, UniProt P10635); experiment: Incubation with human recombinant CYP450 supersomes, 2D6; assay type: in vitro ADME; settings: CYP450 2D6 supersomes, 60 min, 10 μM, average of two experiments
# Chain of CYP2D6 (P10635 whole entry): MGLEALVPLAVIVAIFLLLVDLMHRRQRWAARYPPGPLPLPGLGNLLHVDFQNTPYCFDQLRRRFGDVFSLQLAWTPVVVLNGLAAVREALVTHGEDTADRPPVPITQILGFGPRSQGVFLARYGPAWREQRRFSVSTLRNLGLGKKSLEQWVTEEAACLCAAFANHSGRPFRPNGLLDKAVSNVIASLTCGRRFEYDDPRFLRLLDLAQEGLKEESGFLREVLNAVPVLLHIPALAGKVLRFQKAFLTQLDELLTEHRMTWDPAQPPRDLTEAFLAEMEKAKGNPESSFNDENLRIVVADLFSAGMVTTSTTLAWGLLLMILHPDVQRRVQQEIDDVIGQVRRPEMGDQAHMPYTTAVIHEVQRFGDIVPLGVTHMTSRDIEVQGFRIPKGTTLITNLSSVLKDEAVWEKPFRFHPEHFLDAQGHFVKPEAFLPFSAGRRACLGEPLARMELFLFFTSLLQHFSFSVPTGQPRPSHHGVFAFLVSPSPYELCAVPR
# Description: Supersomes—Incubations were conducted in a final volume of 0.1 mL reaction buffer (50-100 mM potassium phosphate, pH 7.4 or 100 mM Tris-HCL, pH 7.4) according to protocol provided with each CYP450 supersome. Each reaction contained […] of CYP450 supersome, 1.3 mM NADP^+, 3.3 mM glucose-6-phosphate, 0.4 U/mL glucose-6-phosphate dehydrogenase, 3.3 mM MgCl2 and 10 μM Compound 1. Following incubation for 60 min at 37° C., 100 μL of stop solution (acetonitrile:methanol; 1:1) was added and samples centrifuged for 10 min at 10,000×g. The supernatant was then dried and reconstituted in 10 mM potassium phosphate, pH 5, further transferred to an HPLC glass vial and analyzed by HPLC-UV (described above).
# [3] = biological target: CYP3A4 (Homo sapiens, UniProt P08684); experiment: Effect of CYP3A4 inhibitors (ketoconazole, ritonavir) on metabolic stability in human liver microsomes; assay type: in vitro ADME; settings: human microsomes 1 mg/mL, 60 min, 10 μM, NADPH
# Chain of CYP3A4 (Homo sapiens, UniProt P08684) (P08684 whole entry): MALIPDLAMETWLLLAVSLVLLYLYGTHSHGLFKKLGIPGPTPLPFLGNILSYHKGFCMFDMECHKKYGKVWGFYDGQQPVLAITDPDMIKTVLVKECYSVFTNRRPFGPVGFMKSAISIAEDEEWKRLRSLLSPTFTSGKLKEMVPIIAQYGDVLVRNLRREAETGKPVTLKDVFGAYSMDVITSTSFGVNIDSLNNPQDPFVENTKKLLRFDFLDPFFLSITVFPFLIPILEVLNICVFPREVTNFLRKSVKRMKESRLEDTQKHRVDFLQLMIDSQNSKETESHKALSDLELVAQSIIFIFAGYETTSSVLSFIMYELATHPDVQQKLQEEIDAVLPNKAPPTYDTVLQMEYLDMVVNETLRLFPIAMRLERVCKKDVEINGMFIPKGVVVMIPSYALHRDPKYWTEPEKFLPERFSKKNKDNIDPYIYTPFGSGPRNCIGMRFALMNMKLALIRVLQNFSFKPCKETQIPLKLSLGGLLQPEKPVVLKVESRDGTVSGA
# Description: as §1, §2
# [4] = tested on: HCV genotype 1b replicon (GS4.1 cells); experiment: In vitro combination of Compound 1 and ribavirin on HCV replicon (NS4A ELISA; MacSynergy II, CombiTool, CalcuSyn); assay type: cell-based; settings: Hepatitis C virus, 72 h, single-drug titration experiments, three days
# Description: This setup was run in duplicate in each 96-well plate.
# Cells were incubated with inhibitors for three days at 37° C./5% CO2.
# After three days of drug treatment, media was removed from the plates via gentle tapping and the cells were fixed to the plates with 100 μL/well of 1:1 acetone:methanol.
# After one minute of incubation at room temperature, plates were washed three times with 100 μL/well of ELISA wash solution and then blocked with 150 μL/well of 10% FBS-TNE.
# After a one hour incubation period at 37° C., each plate was washed three times with 100 μL/well of ELISA wash solution. Color development was then initiated with 100 μL/well of OPD solution.
# After a 30 minute incubation period in the dark at room temperature, reactions were stopped by adding 100 μL of 2NH2SO4 to each well.
# The absorbance was measured at 490 nm on a Victor^3 V 1420 multilabel counter (Perkin Elmer).
# [5] = Total radioactivity in rat liver after [^14C]-Compound 1; assay type: in vivo, male Sprague-Dawley rats
# Description: Isotopically diluted [^14C]-Compound 1 was administered intravenously to male Sprague-Dawley rats at 50 mg/kg or by oral gavage at 100 mg/kg.
# Liver samples were collected at 2, 6 and 24 h postdose from the animals of both the IV and the PO dose groups. The samples were flash frozen after excision and kept on dry ice during homogenization. The homogenization was conducted on dry ice in 70% methanol-30% water containing 20 mM EDTA and 20 mM EGTA (about 1× (w/v) weight of the liver). Triplicate weighed aliquots (about 500 mg) were combusted in the Packard Sample Oxidizer and followed by LSC analysis to determine radioactivity […]). The average data for levels of total radioactivity in liver are summarized below.
# [6] = Group 1A: IV 50 mg/kg, 2 h postdose
# [7] = Group 1B: IV 50 mg/kg, 6 h postdose
# [8] = Group 1C: IV 50 mg/kg, 24 h postdose
# [9] = Group 2A: PO 100 mg/kg, 2 h postdose
# [10] = Group 2B: PO 100 mg/kg, 6 h postdose
# [11] = Group 2C: PO 100 mg/kg, 24 h postdose
smiles,measurement,setting,value
"CC(C)(CO)C(=O)SCCOP(=O)(NCc1ccccc1)OC[C@H]1O[C@@H](n2cnc3c(=O)[nH]c(N)nc32)[C@](C)(O)[C@@H]1O (mixture of isomers) [Compound 1, 3-hydroxy-2,2-dimethyl-thiopropionic acid S-(2-{[(2R,3R,4R,5R)-5-(2-amino-6-oxo-1,6-dihydro-purin-9-yl)-3,4-dihydroxy-4-methyl-tetrahydro-furan-2-ylmethoxy]-benzylamino-phosphoryloxy}-ethyl) ester]",% Residual Compound 1,[1]; Ketoconazole 0.1 μM,68%
same,% Residual Compound 1,[1]; Ketoconazole 1 μM,125%
same,% Residual Compound 1,[1]; Ritonavir 0.1 μM,41%
same,% Residual Compound 1,[1]; Ritonavir 1 μM,122%
same,% Residual Compound 1,[1]; inhibitor 0 μM,25%
same,% Residual Compound 1,[2],102%
same,% Residual Compound 1,[3]; Ketoconazole 0.1 μM,103%
same,% Residual Compound 1,[3]; Ketoconazole 1 μM,117%
same,% Residual Compound 1,[3]; Ritonavir 0.1 μM,92%
same,% Residual Compound 1,[3]; Ritonavir 1 μM,117%
same,% Residual Compound 1,[3]; inhibitor 0 μM,65%
same,EC50,[4],400 ± 90 nM
same,Concentration of total radioactivity in liver as μg equivalents/gram,[5]; [6],206 ± 24 μg equivalents/gram
same,Total radioactivity in liver as % AD,[5]; [6],15.5 ± 0.7 % AD
same,Concentration of total radioactivity in liver as μg equivalents/gram,[5]; [7],137 ± 12 μg equivalents/gram
same,Total radioactivity in liver as % AD,[5]; [7],10.1 ± 1.0 % AD
same,Concentration of total radioactivity in liver as μg equivalents/gram,[5]; [8],23.2 ± 3.1 μg equivalents/gram
same,Total radioactivity in liver as % AD,[5]; [8],1.76 ± 0.11 % AD
same,Concentration of total radioactivity in liver as μg equivalents/gram,[5]; [9],5.09 ± 0.78 μg equivalents/gram
same,Total radioactivity in liver as % AD,[5]; [9],0.20 ± 0.04 % AD
same,Concentration of total radioactivity in liver as μg equivalents/gram,[5]; [10],10.3 ± 1.2 μg equivalents/gram
same,Total radioactivity in liver as % AD,[5]; [10],0.37 ± 0.05 % AD
same,Concentration of total radioactivity in liver as μg equivalents/gram,[5]; [11],4.08 ± 1.10 μg equivalents/gram
same,Total radioactivity in liver as % AD,[5]; [11],0.17 ± 0.03 % AD
same,"total radioactivity in liver, % of the administered dose","[5]; IV [^14C]Compound 1, 2 h",16%
same,"total radioactivity in liver, % of the administered dose","[5]; IV [^14C]Compound 1, 6 h",10%
same,"total radioactivity in liver, % of the administered dose","[5]; IV [^14C]Compound 1, 24 h",1.8%
same,total radioactivity in liver,"[5]; IV, 2 h",206 μg equivalents of Compound 1/g of liver
same,total radioactivity in liver,"[5]; IV, 6 h",137 μg equivalents of Compound 1/g of liver
same,total radioactivity in liver,"[5]; IV, 24 h",23 μg equivalents of Compound 1/g of liver
same,total radioactivity in liver,"[5]; oral administration, 2 h",5 μg equivalents of Compound 1/g of liver
same,"total radioactivity in liver, % of the dose","[5]; oral administration, 2 h",0.2%
same,total radioactivity in liver,"[5]; oral administration, 6 h",10 μg equivalents of Compound 1/g of liver
same,"total radioactivity in liver, % of the dose","[5]; oral administration, 6 h",0.4%
same,total radioactivity in liver,"[5]; oral administration, 24 h",4 μg equivalents of Compound 1/g of liver
same,"total radioactivity in liver, % of the dose","[5]; oral administration, 24 h",0.2%
